Laboratory results from paper PMC9814205, “Targeting undruggable carbohydrate recognition sites through focused fragment library design” (Communications Chemistry, 2022).
Where “and” joins values, the source holds several entries; their conditions need not be identical. Equal values may be shown once. Entries after “also recorded” stand apart in the source; their conditions may differ.

What was measured:
Assay type in all cases: binding
[1] = target: T1, LecA (Pseudomonas aeruginosa, UniProt Q05097); assay: Competitive fluorescence polarization (FP) assay; settings: for Inhibition in FP: compared to MeGal at 10 mM (16 h); for inhibition at 10000 µM: read-out: Inhibition in FP, compared to MeGal at 10 mM (16 h)
T1 construct: made in house
Procedure: The FP assay was performed in a black 384-well plate (Greiner Bio-One, Germany, 781900) with the final volume of 20 µL as described previously. Briefly, 10 µL of a sample solution series (10–0.078 mM) in TBS buffer containing 10 mM Ca^2+ (TBS/Ca^2+-buffer) and 20% DMSO were added in technical triplicates to 10 µL LecA (40 µM) preincubated with a galactose-based Cy5 conjugate[68] (20 nM) in TBS/Ca^2+-buffer. […] The plate was sealed (EASYseal, Greiner Bio-One, 676,001), centrifuged (1 min, 1500 rpm, 25 °C) and incubated in a humidity chamber for 16 h. The fluorescence was measured with an excitation 590 nm and emission 675 nm filter[68] on a PheraStar FS plate reader (BMG Labtech GmbH, Germany). The blank signal of TBS/Ca^2+-buffer containing 10% DMSO was subtracted and the compounds were analyzed with the MARS Data Analysis Software (BMG Labtech GmbH Germany) using the four-parameter variable slope model. The top and bottom plateaus were defined according to the positive controls. The graphs were visualized using Graphpad Prism 5. The percentage (%) of inhibition was calculated at the highest concentration compared with 10 mM MeGal set to 100%.

[2] = target: T2, 5FW LecA (PA-IL) (Pseudomonas aeruginosa, UniProt Q05097); assay: PrOF NMR with 5-fluorotryptophan-labeled LecA; settings: for LE: ligand efficiency calculated from Kd for LecA, 310 K
T2 construct: made in house
Procedure: PrOF NMR was performed as reported previously. Briefly, 150 µM 5FW LecA was recorded alone and in the presence of DMSO or 2–4 mM compounds in TBS/Ca^2+ buffer. The difference in chemical shift perturbations of W42 in 5FW LecA free vs bound forms was followed to determine Kd values of compounds. The Kd values were calculated according to the one-site-binding model in Origin(Pro) 2020b (OriginLab Corp., USA) from two or three independent titrations. Ligand efficiency values were calculated according to Eq. (1) for a temperature of 310 K.

[3] = target: T3, 15N LecA (Pseudomonas aeruginosa, UniProt Q05097); assay: 1H-15N TROSY NMR with 15N LecA; settings: for binding to 15N LecA in TROSY NMR: 4 mM analogs of 1, 1 mM marketed hydroxamates
T3 construct: made in house
Procedure: (§1) The ^1H-^15N TROSY pulse sequence trosyf3gpphsi19 with 128 increments and 32 scans per increment was applied for 0.15 mM ^15N LecA and 0.07 mM LecB in HBS/Ca^2+ buffer (20 mM HEPES pH 7.4, 150 mM NaCl, 10 mM CaCl2, 10% D2O and 100 µM sodium trimethylsilylpropanesulfonate (DSS) as internal reference) at 310 K. The ^1H-^15N HSQC pulse sequence hsqcf3gpph19 with 128 increments and 8 scans per increment was applied for 0.1 mM ^15N DC-SIGN and Langerin CRD in HBS/Ca^2+ buffer at 298 K. For screening of 650 non-fluorinated fragments of the general library against ^15N LecA, a mix of 10 compounds at 1 mM each was combined with 0.15 mM ^15N LecA in HBS/Ca^2+ buffer (20 mM HEPES pH 7.4, 150 mM NaCl, 10 mM CaCl2, 10% D2O and 100 µM sodium trimethylsilylpropanesulfonate (DSS) as internal reference, whereas the fragments with the MBP scaffolds were validated separately at 1 mM. Similarly, 9 nonfluorinated fragments from the MBP library were screened against ^15N-labeled DC-SIGN, LecA and LecB. To validate the fragment binding to proteins, we recorded ^1H-^15N HSQC and TROSY NMR of proteins in the presence of DMSO as negative control and 2 mM fragments in HBS/Ca^2+ buffer. Natural ligands were used as positive controls at 1 mM MeGal, MeFuc and 30 mM D-mannose to LecA/LecB and DC-SIGN CRD/Langerin CRD, respectively. Titration experiments with ^15N-labeled DC-SIGN CRD or LecB were recorded in HBS/Ca^2+ buffer with 30 mM CaCl2 and 0.25 to 4–8 mM malonic acid derivatives. The Kd values were calculated according to the one-site-binding model in Origin(Pro) 2020b (OriginLab Corp., USA). Ligand efficiency calculations were done according to Eq. (1) for a temperature of 298 K and 310 K for DC-SIGN CRD and LecB, respectively.1 LE=RTlnKd/HA, with the temperature T [K], the gas constant R [kcal mol^−1 K^−1], and the number of non-hydrogen atoms HA[56].
(§2) All data were processed with NMRpipe[65] and analyzed with CcpNmr analysis. For data analysis, the protein fingerprint of ^15N DC-SIGN (Table S7) or Langerin CRD was assigned as reported previously. The ^1H-^15N TROSY resonances of ^15N LecA and ^15N LecB were indexed with IDs due to a lack of protein backbone resonance assignment (Tables S8-S9). Next, resonance IDs from protein spectra were transferred to the spectra obtained in the presence of compounds in order to compare the changes in chemical shift perturbations for the fast exchange peaks. The changes in chemical shift perturbations (CSPs) were calculated according to Eq. (2):2 △δ=1/2△δH2+α△δN^2 in which δ is the difference in chemical shift (in ppm) and α is an empirical weighting factor of 0.14 for all amino acid backbone resonances. The threshold value was set based on three independent measurements of reference spectra to 0.01 ppm for LecA, LecB, DC-SIGN CRD and Langerin CRD.

[4] = target: T1, LecA; assay: Competitive 19F T2-filtered NMR with reporter 5; settings: 0.1 mM 5, 10 mM CaCl2, 3 mM competitor
Procedure: The analogs of 1 (5) and 58 (61) were used as fluorinated spy molecules in ^19F T2-filtered NMR experiments. Two samples containing 0.1 mM 5 or 61 alone or a 10 µM protein in TBS/EDTA buffer followed by addition of 10 mM CaCl2 and the carbohydrates: 1 mM MeGal (LecA), 1 mM MeFuc (LecB/BambL) and 30 mM D-mannose (DC-SIGN/Langerin). Similarly, 0.1 mM 5 was used to prioritize hydroxamate derivatives, where 3 mM analogs of 1 were added to the samples instead of the carbohydrates. The ^19F and ^19F T2-filtered spectra were recorded with 64 scans, a spectral width of 5 ppm, a transmitter offset at −155.5 ppm (5) and −155.5 ppm (61), the acquisition time of 0.8 s, 2 s relaxation time applying a T2-filter of 384 ms. All spectra were analyzed as described above.

[5] = target: T1, LecA; assay: SPR with immobilized LecA; settings: compounds at 0.2 and 1 mM
Procedure: All experiments were performed on a BIACORE X100 instrument (GE Healthcare) at 25 °C in phosphate-buffered saline (10 mM phosphate buffer pH 7.4, 2.7 mM KCl, 137 mM NaCl, 0.05% Tween-20, 100 µM CaCl2, 5% DMSO). LecA was immobilized onto a CM7 chip (BIACORE) following standard amine coupling procedures. The CM7 chip was activated by three injections of a NHS/EDC mixture with a contact time of 540 s at a flow rate of 10 µL min^−1 until the response exceeded 800 RU, followed by multiple injections of LecA dissolved in 10 mM sodium acetate pH 4.5 (100 µg/mL) onto channel 2 (contact time of 540 s at a flow rate of 10 µL min^−1). A minimum of 10,000 RU of LecA was captured onto the chip. Initial binding screens were performed with the injections of 0.2 and 1 mM of each hydroxamate (association 30 s, dissociation 60 s, 30 µL min^−1 flow rate), to identify the initial binders eliciting dose-response behaviors. Injection of the positive control (0.1 mM 4-Nitrophenyl-β-D-galactoside) was included after every forth injection cycle to monitor the activity of immobilized LecA throughout the binding screen experiments. All data evaluation was performed using BIACORE X100 evaluation software (v.2.0).

[6] = target: T4, DC-SIGN CRD (CD209) (Homo sapiens, UniProt Q9NNX6); assay: 1H-15N HSQC NMR with 15N DC-SIGN CRD
T4 construct: the carbohydrate recognition domain (CRD) of DC-SIGN in ^1H-^15N HSQC/TROSY NMR experiments; made in house
T4 sequence (Q9NNX6 263-378 limits assumed): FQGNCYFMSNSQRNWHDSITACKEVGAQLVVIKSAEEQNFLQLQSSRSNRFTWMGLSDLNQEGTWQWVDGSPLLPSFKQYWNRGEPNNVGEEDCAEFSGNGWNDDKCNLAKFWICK
Procedure: as §1, §2

[7] = target: T5, LecB (PA-IIL) (Pseudomonas aeruginosa, UniProt Q9HYN5); assay: 1H-15N TROSY NMR with 15N LecB; settings: 2 mM compound
T5 construct: made in house
Procedure: as §1, with “Ligand efficiency calculations were done according to Eq. (1) for a temperature of 298 K and 310 K for DC-SIGN CRD and LecB, respectively.1 LE=RTlnKd/HA, with the temperature T [K], the gas constant R [kcal mol^−1 K^−1], and the number of non-hydrogen atoms HA[56].” left out
All data were processed with NMRpipe[65] and analyzed with CcpNmr analysis. […] The changes in chemical shift perturbations (CSPs) were calculated according to Eq. (2):2 △δ=1/2△δH2+α△δN^2 in which δ is the difference in chemical shift (in ppm) and α is an empirical weighting factor of 0.14 for all amino acid backbone resonances. […]

T1 sequence (Q05097 whole entry): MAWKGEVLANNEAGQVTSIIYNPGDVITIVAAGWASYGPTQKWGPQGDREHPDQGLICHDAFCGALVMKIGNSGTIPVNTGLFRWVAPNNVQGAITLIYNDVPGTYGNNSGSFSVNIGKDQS
T3 sequence (Q05097 whole entry): as above
T2 sequence (Q05097 2-122): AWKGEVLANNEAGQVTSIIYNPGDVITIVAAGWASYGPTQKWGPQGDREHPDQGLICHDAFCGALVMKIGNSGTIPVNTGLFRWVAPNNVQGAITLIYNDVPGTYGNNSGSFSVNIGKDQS
T5 sequence (Q9HYN5 entry or part of it): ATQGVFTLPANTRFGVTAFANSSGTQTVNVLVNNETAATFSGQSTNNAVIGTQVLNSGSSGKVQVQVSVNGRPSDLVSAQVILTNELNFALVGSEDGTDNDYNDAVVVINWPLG

Structure (SMILES) | Inhibition in FP [1] | inhibition at 10000 µM [1] [%] | binding to 15N LecA in TROSY NMR [3] | further results
O=C(CCCc1ccc([N+](=O)[O-])cc1)NO [compound 39] | 4 ± 2% |  |  | 
O=C(CCCc1ccccc1)NO [compound 35, N-hydroxy-4-phenylbutanamide] |  | 26 ± 1 | preserved the binding | Kd [2]: 4.6 ± 0.9 mM; LE [2]: 0.26 kcal mol^−1 HA^−1; competition of reporter 5 from LecA (recovery of 19F peak) [4]: recovered; also recorded: displaced
O=C(COCCCc1ccccc1)NO [compound 44] |  | 17 ± 2 |  | 
COc1ccc(CC(=O)NO)cc1 [compound 15] | 14–16% and 16 ± 4% |  |  | 
COc1ccc(CCCC(=O)NO)cc1 [compound 40] | 27 ± 1% | 27 to 39 |  | 
O=C(CC=Cc1ccccc1)NO [compound 42] |  | 13 ± 3 | not tolerated | 
O=C(CCCc1ccc(O)cc1)NO [compound 41] | 39 ± 1% | 27 to 39 |  | 
O=C(Cc1ccc(Br)cc1)NO [compound 11] | 14–16% and 14 ± 1% |  |  | 
O=C(CC1CCCCC1)NO [compound 6] |  | 21 ± 1 | preserved its binding | Kd [2]: 4.4 ± 0.6 mM; LE [2]: 0.30 kcal mol^−1 HA^−1
Cc1ccc(CC(=O)NO)cc1 [compound 9] | 14–16% and 16 ± 2% |  |  | 
Cc1ccccc1CC(=O)NO [compound 10] | 14–16% and 14 ± 4% |  |  | 
O=C(CCCc1cccs1)NO [compound 37] |  | 25 ± 3 |  | 
O=C(Cc1ccccc1)NO [compound 2, N-hydroxy-2-phenylacetamide] | 18 ± 1% | 18.3 ± 1 | preserved the binding | Kd [2]: 6.1 ± 0.9 mM; competition of reporter 5 from LecA (recovery of 19F peak) [4]: recovered
O=C(CCCCCCC(=O)Nc1ccccc1)NO [compound 47, reference compound] |  |  | not tolerated; also recorded: none of the marketed metalloproteinase inhibitors (47, 49, 50) bound; also recorded: no binding | Efficiency in SPR (normalized binding response) [5]: 3.8%; competition of reporter 5 from LecA (recovery of 19F peak) [4]: did not displace
Cc1ccc(CCCC(=O)NO)cc1 [compound 36] | 35 ± 3% | 27 to 39 | slightly improved binding | Kd [2]: 3.6 ± 2.2 mM; LE [2]: 0.25 kcal mol^−1 HA^−1
CN(O)C(=O)Cc1ccccc1 [compound 8] |  | 20 ± 3 | not tolerated | 
COc1cccc(C(O)=CC(=O)NO)c1 [compound 31] |  | 9 ± 2 |  | 
O=C(COCCc1ccccc1)NO [compound 43] |  | 8 ± 3 | not tolerated | 
CONC(=O)Cc1ccccc1 [compound 7] | lost their binding and inhibitory effect; also recorded: No inhibiton |  | not tolerated | 
O=C(O)C(F)(CC1CCC1)C(=O)O [compound 61] |  |  |  | binding to 5FW LecA (perturbation of W42) in PrOF NMR ([2]; 2 mM compound): perturbed W42; also recorded: strongest perturbation of W42; W42 [ppm] ([2]; 19F resonance of 0.15 mM 5FW LecA with 2 mM compound, DMSO 120.50): 120.32 ppm; W2 [ppm] ([2]; 19F resonance of 0.15 mM 5FW LecA with 2 mM compound, DMSO 121.43): 121.46 ppm; W33 [ppm] ([2]; 19F resonance of 0.15 mM 5FW LecA with 2 mM compound, DMSO 121.67): 121.73 ppm; W84 [ppm] ([2]; 19F resonance of 0.15 mM 5FW LecA with 2 mM compound, DMSO 123.50): 123.52 ppm; Kd ([6]; 15N DC-SIGN CRD, titration, one-site binding model, 30 mM CaCl2): 1.9 mM; LE ([6]; ligand efficiency calculated from Kd for DC-SIGN CRD, 298 K): 0.28 kcal mol^−1 HA^−1
NC(C(=O)NO)c1ccccc1 (stereo not drawn) [compound 1] |  |  |  | Kd [2]: 7.2 ± 1.4 mM; LE [2]: 0.25 kcal mol^−1 HA^−1; inhibition at 4000 µM ([1]; read-out: Inhibition in FP, compared to MeGal, measured at 4 mM (16 h)): 6%; Efficiency in SPR (normalized binding response) [5]: 11.6%; binding to 15N LecB in TROSY NMR [7]: did not bind; total % of CSPs normalized to MeGal in 15N LecA ([3]; 2 mM compound, 1 mM MeGal): 40%; competition of reporter 5 from LecA (recovery of 19F peak) [4]: did not displace
O=C(CCCc1ccc(Br)cc1)NO [compound 38] |  | 25 ± 1 |  | 
